The values below are quoted from earlier work in EP4605403B1, “METHOD AND COMPOSITION FOR OLIGONUCLEOTIDE SYNTHESIS” (Bachem Holding AG, priority 2022, dated 2024).

The conditions of the series: protonated form of the base; in water at 25 °C; from A. Fischer et al., J. Chem. Soc. 1964, 3591-3596.

For the compound `Nc1ccncc1` [4-aminopyridine], the pKa-value is 9.1.
